Where two headings read alike, the source gives them in different places.
Tested on: panel of 55 breast cancer cell lines
Experiment: Cell growth inhibition assay (Cell Titer Glo, 72 h, 9 doses; GI50, TGI, LC50)
Type: cell-based, human
Settings: Homo sapiens, read-out: GI50 (converted)
[1] = HCC1954, HCC1954 cell line, censored GI50 values
[2] = MDA-MB-134-VI, MDAMB134VI cell line, censored GI50 values
[3] = MDA-MB-175-VII, MDAMB175VII cell line, censored GI50 values
[4] = SUM52PE, SUM52PE cell line, censored GI50 values
[5] = SUM149PT, SUM149PT cell line, censored GI50 values
[6] = SUM1315MO2, SUM1315MO2 cell line, censored GI50 values
[7] = ZR-75-1, ZR751 cell line, censored GI50 values

## Cn1cnc2c(F)c(Nc3ccc(Br)cc3Cl)c(C(=O)NOCCO)cc21 [AZD6244]
BT-20, cell line BT20
  GI50: 50.1 µM
BT-474, cell line BT474
  GI50: 50.1 µM
BT-483, cell line BT483
  GI50: 50.1 µM
CAMA-1, cell line CAMA1
  GI50: 50.1 µM
HCC38, cell line HCC38
  GI50: 50.1 µM
HCC1395, HCC1395 cell line, censored GI50 values
  GI50: 28.8 µM
HCC1395, cell line HCC1395
  GI50: 28.8 µM
HCC1419, HCC1419 cell line, censored GI50 values
  GI50: 17.8 µM
HCC1419, cell line HCC1419
  GI50: 17.8 µM
HCC1428, cell line HCC1428
  GI50: 50.1 µM
HCC1500, cell line HCC1500
  GI50: 50.1 µM
HCC1806, cell line HCC1806
  GI50: 50.1 µM
HCC1937, cell line HCC1937
  GI50: 50.1 µM
[1]
  GI50: 1.45 µM
HCC1954, cell line HCC1954
  GI50: 1.45 µM
MCF7, cell line MCF7
  GI50: 50.1 µM
[2]
  GI50: 1.17 µM
[3]
  GI50: 2.57 µM
MDA-MB-231, cell line MDAMB231
  GI50: 50.1 µM
MDA-MB-361, cell line MDAMB361
  GI50: 50.1 µM
MDA-MB-415, cell line MDAMB415
  GI50: 50.1 µM
MDA-MB-436, cell line MDAMB436
  GI50: 50.1 µM
MDA-MB-453, cell line MDAMB453
  GI50: 50.1 µM
MDA-MB-468, cell line MDAMB468
  GI50: 50.1 µM
SK-BR-3, cell line SKBR3
  GI50: 50.1 µM
[4]
  GI50: 9.77 µM
SUM52PE, cell line SUM52PE
  GI50: 9.77 µM
[5]
  GI50: 0.525 µM
SUM149PT, cell line SUM149PT
  GI50: 0.525 µM
SUM185PE, cell line SUM185PE
  GI50: 50.1 µM
[6]
  GI50: 7.59 µM
T47D, cell line T47D
  GI50: 50.1 µM
[7]
  GI50: 6.17 µM
ZR-75-1, cell line ZR751
  GI50: 6.17 µM
ZR-75B, cell line ZR75B
  GI50: 50.1 µM
Cell line HCC2185
  GI50: 50.1 µM
Cell line MDAMB134V
  GI50: 1.17 µM
Cell line MDAMB175V
  GI50: 2.57 µM
Cell line SUM1315MO
  GI50: 7.59 µM

## Cn1c(=O)n(-c2ccc(C(C)(C)C#N)cc2)c2c3cc(-c4cnc5ccccc5c4)ccc3ncc21 [BEZ235]
AU565, AU565 cell line, censored GI50 values
  GI50: 0.257 µM
AU565, cell line AU565
  GI50: 0.257 µM
BT-20, BT20 cell line, censored GI50 values
  GI50: 3.8 µM
BT-20, cell line BT20
  GI50: 3.8 µM
BT-474, BT474 cell line, censored GI50 values
  GI50: 0.347 µM
BT-474, cell line BT474
  GI50: 0.347 µM
BT-483, BT483 cell line, censored GI50 values
  GI50: 11.2 µM
BT-483, cell line BT483
  GI50: 11.2 µM
CAMA-1, CAMA1 cell line, censored GI50 values
  GI50: 16.6 µM
CAMA-1, cell line CAMA1
  GI50: 16.6 µM
HCC38, HCC38 cell line, censored GI50 values
  GI50: 0.49 µM
HCC38, cell line HCC38
  GI50: 0.49 µM
HCC70, HCC70 cell line, censored GI50 values
  GI50: 0.158 µM
HCC70, cell line HCC70
  GI50: 0.158 µM
HCC1187, cell line HCC1187
  GI50: 33.1 µM
HCC1428, HCC1428 cell line, censored GI50 values
  GI50: 17 µM
HCC1428, cell line HCC1428
  GI50: 17 µM
[1]
  GI50: 0.0525 µM
HCC1954, cell line HCC1954
  GI50: 0.0525 µM
HCC2185 cell line, censored GI50 values
  GI50: 0.263 µM
HCC3153 cell line, censored GI50 values
  GI50: 0.646 µM
MCF7, MCF7 cell line, censored GI50 values
  GI50: 0.589 µM
MCF7, cell line MCF7
  GI50: 0.589 µM
[2]
  GI50: 1 µM
[3]
  GI50: 1.15 µM
MDA-MB-361, MDAMB361 cell line, censored GI50 values
  GI50: 0.813 µM
MDA-MB-361, cell line MDAMB361
  GI50: 0.813 µM
MDA-MB-415, MDAMB415 cell line, censored GI50 values
  GI50: 0.263 µM
MDA-MB-415, cell line MDAMB415
  GI50: 0.263 µM
MDA-MB-453, MDAMB453 cell line, censored GI50 values
  GI50: 0.132 µM
MDA-MB-453, cell line MDAMB453
  GI50: 0.132 µM
MDA-MB-468, cell line MDAMB468
  GI50: 33.1 µM
SK-BR-3, SKBR3 cell line, censored GI50 values
  GI50: 0.589 µM
SK-BR-3, cell line SKBR3
  GI50: 0.589 µM
[4]
  GI50: 17 µM
SUM52PE, cell line SUM52PE
  GI50: 17 µM
[5]
  GI50: 0.269 µM
SUM149PT, cell line SUM149PT
  GI50: 0.269 µM
SUM185PE, SUM185PE cell line, censored GI50 values
  GI50: 15.1 µM
SUM185PE, cell line SUM185PE
  GI50: 15.1 µM
[6]
  GI50: 0.224 µM
SUM-159-PT, SUM159PT cell line, censored GI50 values
  GI50: 0.0363 µM
SUM-159-PT, cell line SUM159PT
  GI50: 0.0363 µM
T47D, T47D cell line, censored GI50 values
  GI50: 0.282 µM
T47D, cell line T47D
  GI50: 0.282 µM
UACC-812, UACC812 cell line, censored GI50 values
  GI50: 16.6 µM
UACC-812, cell line UACC812
  GI50: 16.6 µM
[7]
  GI50: 16.6 µM
ZR-75-1, cell line ZR751
  GI50: 16.6 µM
ZR-75B, ZR75B cell line, censored GI50 values
  GI50: 0.141 µM
ZR-75B, cell line ZR75B
  GI50: 0.141 µM
Cell line HCC2185
  GI50: 0.263 µM
Cell line HCC3153
  GI50: 0.646 µM
Cell line MDAMB134V
  GI50: 1 µM
Cell line MDAMB175V
  GI50: 1.15 µM
Cell line SUM1315MO
  GI50: 0.224 µM

From patent US10770169B2, “Method of providing a treatment to a subject based on a dynamic pathway map” (THE REGENTS OF THE UNIVERSITY OF CALIFORNIA, priority 2010, dated 2020)
